# Key:
# [1] = system: PBLs isolated from male HLA-A2001+ donors; experiment: Limiting dilution analysis of CTL precursor frequency; type: cell-based, human; conditions: for Number of precursors (precursor frequency): calculated by X^2 minimization; for % of negative microcolonies, 10,000: two cycles of stimulation with the peptide, targets CIRA2 pulsed 3 h, cold K562
# Method: Limiting dilution assays were used for the determination of precursor frequencies to PSA-1, PSA-3 and PSA-OP. Various number of PBMCs were seeded in 96-well flat bottom plates (Coming Costar) with 1×10^4 autologous PBMC irradiated with 4,000 rads and incubated with 50 μg/ml of PSA peptide. Cells were cultured in complete medium as described previously. At least 48 cultures were set up for each dilution. Cultures were incubated for 5 days at 37° C. in a humidified atmosphere containing 5% CO2 and then provided with fresh medium containing human IL-2 for 11 days, with IL-2-containing medium being replenished every 72 hr as shown below for CTLs generation. After two cycles of stimulation specific cytotoxic activity was tested for each single well, against CIR-A2 target cells with or without incubation with peptide. Cytotoxic assays were similar to the method described above. The unlabelled K562 cells were added to the microwells containing responder cells. After 1 hr incubation at 37° C. target cells were added into each well and incubated for 6 hrs at 37° C. Precursor frequencies were calculated by X^2 minimization.
# [2] = system: PBMC from normal healthy donors expressing the HLA A2 class 1 allele; experiment: Establishment of human T cell lines by pulsing PBMC with peptide and IL-2; type: cell-based; conditions: donors with T cell line / donors tested; PBMC pulsed with peptide and IL-2
# Excerpt: Cytotoxic T-cells specific for PSA can be established from peripheral blood mononuclear cells (PBMC) obtained from a host immunized as discussed above. For example, PBMC can be separated by using Lymphocyte Separation Medium gradient (Organon Teknika, Durham, N.C., USA) as previously described [Boyum et al, Scand J. Clin Lab Invest 21:77-80 (1968)]. Washed PBMC are resuspended in a complete medium, for example, RPMI 1640 (GIBCO) supplemented with 10% pool human AB serum (Pel-Freeze Clinical System, Brown Dear, Wisc., USA), 2 mM glutamine, 100 U/ml penicillin and 100 μg/ml of streptomycin (GIBCO). PBMC at a concentration of about 2×10^5 cells in complete medium in a volume of, for example 100 μl are added into each well of a 96-well flat-bottom assay plate (Costar, Cambridge, Mass., USA). The antigen or peptides are added into the cultures in a final concentration of about 50 μg/ml and incubated at 37° C. in a humidified atmosphere containing 5% CO2 for 5 days. After removal of peptide containing media, the cultures are provided with fresh human IL-2 (10 U/ml) after 5 days and replenished with IL-2 containing medium every 3 days. Primary cultures are restimulated with the same peptide (50 μg/ml) on day 16. 5×10^5 irradiated (4,000 rad) autologous PBMC are added in a volume of about 50 μl complete medium as antigen-presenting cells (APC). […]
sequence,measurement,setting,value
"FLTPKKLQCV [PSA-1, ID No. 1]","% of negative microcolonies, 500",[1]; T/PSA-OP 2 donor,95.8%
same,"% of negative microcolonies, 1,000",[1]; T/PSA-OP 2 donor,93.7%
same,"% of negative microcolonies, 5,000",[1]; T/PSA-OP 2 donor,75.0%
same,Number of precursors (precursor frequency),[1]; T/PSA-OP 2 donor,1/14695
same,"% of negative microcolonies, 10,000",[1]; T/PSA-OP 2 donor,47.9%
same,"% of negative microcolonies, 500",[1]; T/PSA-OP 3 donor,100.0%
same,"% of negative microcolonies, 1,000",[1]; T/PSA-OP 3 donor,100.0%
same,"% of negative microcolonies, 5,000",[1]; T/PSA-OP 3 donor,97.9%
same,Number of precursors (precursor frequency),[1]; T/PSA-OP 3 donor,1/181480
same,"% of negative microcolonies, 10,000",[1]; T/PSA-OP 3 donor,93.7%
same,T cell lines established from normal donors,[2],5/6
